Biological target: T1, androgen receptor (Homo sapiens, UniProt P10275)
T1 sequence (P10275 1-920 Q868H): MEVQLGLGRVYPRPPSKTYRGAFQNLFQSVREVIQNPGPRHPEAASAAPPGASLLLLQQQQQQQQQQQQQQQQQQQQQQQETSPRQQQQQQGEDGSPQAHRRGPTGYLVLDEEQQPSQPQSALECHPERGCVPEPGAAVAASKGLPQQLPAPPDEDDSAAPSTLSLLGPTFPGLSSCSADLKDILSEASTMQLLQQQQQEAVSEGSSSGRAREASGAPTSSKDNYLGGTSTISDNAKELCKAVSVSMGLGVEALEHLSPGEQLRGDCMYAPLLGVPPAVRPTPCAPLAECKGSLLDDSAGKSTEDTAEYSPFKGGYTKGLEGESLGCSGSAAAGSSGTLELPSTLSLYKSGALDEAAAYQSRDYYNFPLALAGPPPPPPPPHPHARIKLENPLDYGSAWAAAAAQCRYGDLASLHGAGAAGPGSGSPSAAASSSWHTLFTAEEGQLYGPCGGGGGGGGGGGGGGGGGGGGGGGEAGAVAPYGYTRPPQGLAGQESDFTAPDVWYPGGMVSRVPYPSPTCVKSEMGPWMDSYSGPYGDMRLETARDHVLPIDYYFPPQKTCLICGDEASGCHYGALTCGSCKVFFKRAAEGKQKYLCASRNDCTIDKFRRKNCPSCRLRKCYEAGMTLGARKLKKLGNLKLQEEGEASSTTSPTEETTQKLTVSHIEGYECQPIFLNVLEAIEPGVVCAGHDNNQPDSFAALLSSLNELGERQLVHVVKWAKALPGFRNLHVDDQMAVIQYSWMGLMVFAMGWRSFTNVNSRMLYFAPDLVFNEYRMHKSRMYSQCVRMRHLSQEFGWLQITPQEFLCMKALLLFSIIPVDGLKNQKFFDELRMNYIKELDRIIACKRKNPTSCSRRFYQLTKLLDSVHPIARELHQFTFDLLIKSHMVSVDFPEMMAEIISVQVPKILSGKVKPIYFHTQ
Assay: AR Antagonist Cell Assay (MMTV-luciferase reporter, DHT-stimulated)
Assay type: cell-based
Settings: MDA-MB453-MMTV clone 54-19 cells, inhibition of induction by 100 pM DHT, 17 hr
Protocol: The compounds ability to antagonize the effects of androgen on the androgen receptor were determined in the protocol described immediately below.
Experimental Procedure for AR Antagonist Cell Assay
Cell line: MDA-MB453-MMTV clone 54-19. This cell line is a stable transfected cell line with MDA-MB453 cell background (human breast tumor cell expressing high level of androgen receptor). A MMTV minimal promoter containing ARE was first cloned in front of a firefly luciferase reporter gene. Then the cascade was cloned into transfection vector pUV120puro. Electroporation method was used for transfecting MDA-MB-453 cell. Puromycin resistant stable cell line was selected.
Cell Culture Media and Reagents:
Culture medium: DMEM (high glucose, Gibco cat #: 11960-044), 10% FBS, and 1% L-glutamine
Plating medium: DMEM (phenol red free), 10% charcoal treated HyClone serum, 1% L-glutamine
Assay medium: DMEM (phenol red free), 1% charcoal treated HyClone serum, 1% L-glutamine, and 1% penicillin/streptomycin
3×luciferase buffer: 2% beta-mercaptoethanol, 0.6% ATP, 0.0135% luciferine in cell lysis buffer
• 1. Cells are maintained in culture medium, splitting cells when they reach 80–90% confluence • 2. To test compounds, 10,000 cells/well are plated to opaque 96 cell culture plate in 100 ul/well plating medium, culture for overnight at 37° C. in cell culture incubator • 3. Carefully remove plating medium, then add 80 ul/well of pre-warmed assay medium, add 10 ul/well testing compound (final concentration at 10 uM or 1 uM), incubate at 37° C. for 30 minutes • 4. Add 10 ul/well freshly prepared DHT (final concentration at 100 pM) to each well, incubate at 37° C. for 17 hr (overnight) • 5. Add 50 ul/well 3×luciferase buffer, incubate at room temperature for 5 minutes, then count on Luminometer
The fold induction over background by 100 pM DHT in the absence of testing compounds is standardized as 100% and experimental result is expressed as percentage of inhibition by testing compounds.

Row | SMILES | IC50 [µM]
1 | COc1ccc(N2CCN(S(=O)(=O)c3ccc(Cc4ccc5oc(=O)cc(C(F)(F)F)c5c4)cc3)CC2C)cc1 (stereo not shown) [Example 32, 6-{4-[4-(4-Methoxyphenyl)-3-methylpiperazine-1-sulfonyl]benzyl}-4-trifluoromethylchromen-2-one] | 9.3
2 | O=c1cc(C(F)(F)F)c2cc(Cc3ccc(S(=O)(=O)N4CCC(O)(c5cccs5)CC4)cc3)ccc2o1 [Example 33, 6-[4-(4-Hydroxy-4-thiophen-2-ylpiperidine-1-sulfonyl)benzyl]-4-trifluoromethylchromen-2-one] | 8.6
3 | O=c1cc(C(F)(F)F)c2cc(Cc3ccc(S(=O)(=O)N4Cc5ccccc5C4)cc3)ccc2o1 [Example 34, 6-[4-(1,3-Dihydroisoindole-2-sulfonyl)benzyl]-4-trifluoromethylchromen-2-one] | 4.5
4 | COc1cc2c(cc1OC)CN(S(=O)(=O)c1ccc(Cc3ccc4oc(=O)cc(C(F)(F)F)c4c3)cc1)CC2 [Example 35, 6-[4-(6,7-Dimethoxy-3,4-dihydro-1H-isoquinoline-2-sulfonyl)benzyl]-4-trifluoromethylchromen-2-one] | 1.2
5 | O=c1cc(C(F)(F)F)c2cc(Cc3ccc(S(=O)(=O)N4CCC5(CC4)OCCO5)cc3)ccc2o1 [Example 36, 6-[4-(1,4-Dioxa-8-azaspiro[4.5]decane-8-sulfonyl)benzyl]-4-trifluoromethylchromen-2-one] | 7.2
6 | O=c1cc(C(F)(F)F)c2cc(Cc3ccc(S(=O)(=O)N4CCN(CCCN5CCCCC5)CC4)cc3)ccc2o1 [Example 38, 6-{4-[4-(3-Piperidin-1-ylpropyl)piperazine-1-sulfonyl]benzyl}-4-trifluoromethylchromen-2-one] | > 10
7 | COCCN1CCN(S(=O)(=O)c2ccc(Cc3ccc4oc(=O)cc(C(F)(F)F)c4c3)cc2)CC1 [Example 39, 6-{4-[4-(2-Methoxyethyl)piperazine-1-sulfonyl]benzyl}-4-trifluoromethylchromen-2-one] | 9.4
8 | O=c1cc(C(F)(F)F)c2cc(Cc3ccc(S(=O)(=O)N4CCN(CCOCCO)CC4)cc3)ccc2o1 [Example 42, 6-(4-{4-[2-(2-Hydroxyethoxy)ethyl]-piperazine-1-sulfonyl}benzyl)-4-trifluoromethylchromen-2-one] | > 10
9 | CC(C)N(CCN1CCN(S(=O)(=O)c2ccc(Cc3ccc4oc(=O)cc(C(F)(F)F)c4c3)cc2)CC1)C(C)C [Example 44, 6-{4-[4-(2-Diisopropylamino-ethyl)piperazine-1-sulfonyl]benzyl}-4-trifluoromethylchromen-2-one] | 5.2
10 | O=C(CN1CCN(S(=O)(=O)c2ccc(Cc3ccc4oc(=O)cc(C(F)(F)F)c4c3)cc2)CC1)N1CCCC1 [Example 47, 6-{4-[4-(2-Oxo-2-pyrrolidin-1-ylethyl)piperazine-1-sulfonyl]benzyl}-4-trifluoromethylchromen-2-one] | > 10
11 | O=c1cc(C(F)(F)F)c2cc(Cc3ccc(S(=O)(=O)N4CCN(c5ccncc5)CC4)cc3)ccc2o1 [Example 50, 6-[4-(4-Pyridin-4-ylpiperazine-1-sulfonyl)benzyl]-4-trifluoromethylchromen-2-one] | 1.6
12 | O=c1cc(C(F)(F)F)c2cc(Cc3ccc(S(=O)(=O)N4CCCN(CCc5ccccc5)CC4)cc3)ccc2o1 [Example 54] | 2.5

Next, values leading:

Row | IC50 [µM] | SMILES
13 | > 10 | O=c1cc(C(F)(F)F)c2cc(Cc3ccc(S(=O)(=O)N4CCC(N5CCCC5)CC4)cc3)ccc2o1 [Example 30, 6-[4-(4-Pyrrolidin-1-ylpiperidine-1-sulfonyl)benzyl]-4-trifluoromethylchromen-2-one]
14 | 8.2 | O=c1cc(C(F)(F)F)c2cc(Cc3ccc(S(=O)(=O)N4CCN(CCCO)CC4)cc3)ccc2o1 [Example 31, 6-{4-[4-(3-Hydroxypropyl)piperazine-1-sulfonyl]benzyl}-4-trifluoromethylchromen-2-one]
15 | 5.3 | O=c1cc(C(F)(F)F)c2cc(Cc3ccc(S(=O)(=O)N4CCCCC4CO)cc3)ccc2o1 (stereo not shown) [Example 37, 6-[4-(2-Hydroxymethyl-piperidine-1-sulfonyl)benzyl]-4-trifluoromethylchromen-2-one]
16 | > 10 | COC(=O)[C@@H]1CCCN1S(=O)(=O)c1ccc(Cc2ccc3oc(=O)cc(C(F)(F)F)c3c2)cc1 [Example 41, 1-[4-(2-Oxo-4-trifluoromethyl-2H-chromen-6-ylmethyl)-benzenesulfonyl]pyrrolidine-2-carboxylic acidmethyl ester]
17 | 8.9 | O=c1cc(C(F)(F)F)c2cc(Cc3ccc(S(=O)(=O)N4CCN(CCO)CC4)cc3)ccc2o1 [Example 43, 6-{4-[4-(2-Hydroxyethyl)piperazine-1-sulfonyl]benzyl}-4-trifluoromethylchromen-2-one]
18 | 7.6 | O=c1cc(C(F)(F)F)c2cc(Cc3ccc(S(=O)(=O)N4CCCC(CO)C4)cc3)ccc2o1 (stereo not shown) [Example 45, 6-[4-(3-Hydroxymethyl-piperidine-1-sulfonyl)benzyl]-4-trifluoromethylchromen-2-one]
19 | > 10 | O=c1cc(C(F)(F)F)c2cc(Cc3ccc(S(=O)(=O)N4CCSC4)cc3)ccc2o1 [Example 46, 6-[4-(Thiazolidine-3-sulfonyl)benzyl]-4-trifluoromethylchromen-2-one]
20 | 8.9 | O=c1cc(C(F)(F)F)c2cc(Cc3ccc(S(=O)(=O)N4CCCCC4c4cccnc4)cc3)ccc2o1 (stereo not shown) [Example 48, 6-[4-(3,4,5,6-Tetrahydro-2H-[2,3′]bipyridinyl-1-sulfonyl)benzyl]-4-trifluoromethylchromen-2-one]
21 | > 10 | CC1CCN(S(=O)(=O)c2ccc(Cc3ccc4oc(=O)cc(C(F)(F)F)c4c3)cc2)CC1 [Example 49, 6-[4-(4-Methylpiperidine-1-sulfonyl)benzyl]-4-trifluoromethylchromen-2-one]
22 | > 10 | O=c1cc(C(F)(F)F)c2cc(Cc3ccc(S(=O)(=O)N4CCCCC4CCO)cc3)ccc2o1 (stereo not shown) [Example 51, 6-{4-[2-(2-Hydroxyethyl)piperidine-1-sulfonyl]benzyl}-4-trifluoromethylchromen-2-one]
23 | 3.4 | O=c1cc(C(F)(F)F)c2cc(Cc3ccc(S(=O)(=O)N4CCCC4CO)cc3)ccc2o1 (stereo not shown) [Example 52, 6-[4-(2-Hydroxymethyl-pyrrolidine-1-sulfonyl)benzyl]-4-trifluoromethylchromen-2-one]
24 | 4.2 | O=c1cc(C(F)(F)F)c2cc(Cc3ccc(S(=O)(=O)N4CCCC5CCCCC54)cc3)ccc2o1 (stereo not shown) [Example 53, 6-[4-(Octahydroquinoline-1-sulfonyl)benzyl]-4-trifluoromethylchromen-2-one]
25 | > 10 | CN(C)CCN1CCN(S(=O)(=O)c2ccc(Cc3ccc4oc(=O)cc(C(F)(F)F)c4c3)cc2)CC1 [Example 55, 6-{4-[4-(2-Dimethylamino-ethyl)piperazine-1-sulfonyl]benzyl}-4-trifluoromethylchromen-2-one]
26 | > 10 | O=c1cc(C(F)(F)F)c2cc(Cc3ccc(S(=O)(=O)N4CCC(O)CC4)cc3)ccc2o1 [Example 56, 6-[4-(4-Hydroxypiperidine-1-sulfonyl)benzyl]-4-trifluoromethylchromen-2-one]
27 | 6.8 | O=c1cc(C(F)(F)F)c2cc(Cc3ccc(S(=O)(=O)N4CCCCCC4)cc3)ccc2o1 [Example 57, 6-[4-(Azepane-1-sulfonyl)benzyl]-4-trifluoromethylchromen-2-one]
28 | 9.8 | CC1CCCCN1S(=O)(=O)c1ccc(Cc2ccc3oc(=O)cc(C(F)(F)F)c3c2)cc1 (stereo not shown) [Example 58, 6-[4-(2-Methylpiperidine-1-sulfonyl)benzyl]-4-trifluoromethylchromen-2-one]

Source: patent US7057048B2, “Androgen receptor antagonists” (Warner Lambert Company LLC, priority 2003, dated 2006)
